Measurements taken from patent US4968539A, “Liquid crystal membrane” (Lion Corporation, priority 1987, dated 1990).
Like-named read-outs stand apart in the source and are kept apart here.

Legend:
[1] = Amount of acetaminophen permeated through hairless rat skin with membrane, two-chamber diffusion cell; assay type: in vitro ADME, WBN/Kob hairless rats
Method: The skin of the abdomen of WBN/Kob hairless rats ("Saitama" experimental animal) was taken under anesthesia (60 mg/kg pentobarbital, I.P.). A membrane sample prepared in the same manner as that of Example 3 was applied to the corneous layer-side of the skin specimens and they were placed in a glass two-chamber diffusion cell. 10% aqueous ethanol solution containing 2.4% of acetaminophen dissolved therein was placed in a donor-side chamber thereof and a phosphate buffer solution (pH 7.4) was placed in a receiver-side chamber. Increase in acetaminophen concentration in the receiver-side chamber with time was determined by HPLC.

[2] = plaster of clonidine; American Heart Journal, 217-222, July (1984); cited from earlier work
[3] = in vivo; parameters: species or system white rabbits; conditions: rabbit
Method: (§1) Hair was removed from the abdomen of a white rabbits weighing 2.0 to 2.5 kg with an electric clipper and the abdomen was then shaved with an electric razor carefully so as not to hurt the skin. A glass cell kept at a constant temperature by circulation of warm water was fixed thereon with a quick adhesive (Alon Alpha® of Toa Gosei Co.) through a membrane sample.
(§2) A drug solution was placed in the glass cell and the concentration of the drug in the blood was determined at time intervals over 48 h. In this experiment, the blood sample was taken from the ear vein of the rabbit at given time intervals and the drug concentration was analyzed according to liquid chromatography.
(§3) The polymer membrane and the drug solution used in this experiment were prepared as follows: in the example of the present invention, a polypropylene membrane (Celgard® 2402 having a port diameter of 0.02 μm and porosity of 38%) was immersed in 15% or 20% solution of polyoxyethylene(3 mol) trimethylolpropane tristearate (TPS-303® of Nippon Emulsion Co.) in chloroform for one hour and then air-dried to obtain the membrane. The drug solution used in this example was 50% aqueous N-methyl-2-pyrrolidone solution further containing 0.01 g/ml of indomethacin.
In a comparative example, about 1 wt.% of indomethacin was mixed in 100 parts by weight of an ointment base comprising 40% of ethyl alcohol, 58.4% of water, 1.5% of a polycarboxylic acid (Carbopol 940® of Goodrich Chemical Co.) and 0.1% of triethanolamine to prepare an ointment. 3 g of the ointment was placed in the constant temperature glass cell. No polymer membrane was used.

[4] = Ketoprofen concentration in the blood after application to rabbit abdomen; assay type: in vivo, white rabbits
Method: as §1, §2, §3
A change of the concentration of ketoprofen in the blood was investigated with the same polymer membrane in the same manner as those of Example 6 except that 3 ml of 30% aqueous ethanol solution in which 0.01 g/ml of ketoprofen had been suspended was used.

[5] = Cumulative amount of nitroglycerin permeated through hairless rat skin, two-chamber diffusion cell; assay type: in vitro ADME; conditions: 38° C.
Method: The same membrane sample as that of Example 2 and the same skin of hairless rat as that of Example 3 were mounted in the glass 2-chamber diffusion cell in the same manner as described above. 0.1% aqueous nitroglycerin solution was placed in the donor-side chamber and a phosphate buffer solution (pH 7.4) was placed in the receiver chamber. An increase of the concentration of nitroglycerin in the receiver chamber with time was determined by HPLC. As a control, only the skin free from the sample membrane was used in the experiment of the permeation of nitroglycerin through the skin. The experiment was conducted at 38° C.

[6] = rabbit, blood, topical or ocular, 32° C., read-out: Concentration of drug in blood
[7] = rabbit, blood, topical or ocular, 38° C., read-out: Concentration of drug in blood

## CC(=O)Nc1ccc(O)cc1 [acetaminophen]
[1]; 32° C., 2 hr
  Amount of drug permeated through the skin: 0 μg/cm^2
[1]; 32° C., 4 hr
  Amount of drug permeated through the skin: 0 μg/cm^2
[1]; 32° C., 12 hr
  Amount of drug permeated through the skin: 0 μg/cm^2
[1]; 32° C., 24 hr
  Amount of drug permeated through the skin: 2 μg/cm^2
[1]; 32° C., 36 hr
  Amount of drug permeated through the skin: 5 μg/cm^2
[1]; 38° C., 2 hr
  Amount of drug permeated through the skin: 1 μg/cm^2
[1]; 38° C., 4 hr
  Amount of drug permeated through the skin: 3 μg/cm^2
[1]; 38° C., 12 hr
  Amount of drug permeated through the skin: 60 μg/cm^2
[1]; 38° C., 24 hr
  Amount of drug permeated through the skin: 170 μg/cm^2
[1]; 38° C., 36 hr
  Amount of drug permeated through the skin: 330 μg/cm^2

## Clc1cccc(Cl)c1N=C1NCCN1 [clonidine]
[2]
  Time to attain an effective concentration in the blood: three

## COc1ccc2c(c1)c(CC(=O)O)c(C)n2C(=O)c1ccc(Cl)cc1 [indomethacin]
[3]; 360 min
  Concentration of drug in blood: 0 ng/mL
[3]; 2880 min
  Concentration of drug in blood: 0 ng/mL
[3]; topical or ocular, 6 h
  Concentration of drug in blood: 22 ng/mL
[3]; topical or ocular, Concentration of drug in blood
  concentration at 6 h: 20 ng/mL

## CC(C(=O)O)c1cccc(C(=O)c2ccccc2)c1 (stereo not shown) [ketoprofen]
[4]; 32° C., 6 hr
  Concentration of drug in blood: 0 ng/mL
[4]; [6]
  concentration at 24 h: 18 ng/mL
  concentration at 48 h: 17 ng/mL
[4]; rabbit, blood, topical or ocular, 38° C., 6 hr, read-out: Concentration of drug in blood
  concentration at 6 h: 740 ng/mL
[4]; [7]
  concentration at 24 h: 410 ng/mL
  concentration at 48 h: 300 ng/mL

## O=[N+]([O-])OCC(CO[N+](=O)[O-])O[N+](=O)[O-] [nitroglycerin]
[5]; With polymer membrane of the present invention, 2 h
  Cumulative amount of permeated nitroglycerin: 26 μg/cm^2
[5]; With polymer membrane of the present invention, 4 hr
  Cumulative amount of permeated nitroglycerin: 92 μg/cm^2
[5]; With polymer membrane of the present invention, 6 hr
  Cumulative amount of permeated nitroglycerin: 185 μg/cm^2
[5]; With polymer membrane of the present invention, 8 hr
  Cumulative amount of permeated nitroglycerin: 274 μg/cm^2
[5]; With polymer membrane of the present invention, 10 hr
  Cumulative amount of permeated nitroglycerin: 365 μg/cm^2
[5]; Without polymer membrane (skin only), 2 h
  Cumulative amount of permeated nitroglycerin: 8 μg/cm^2
[5]; Without polymer membrane (skin only), 4 hr
  Cumulative amount of permeated nitroglycerin: 44 μg/cm^2
[5]; Without polymer membrane (skin only), 6 hr
  Cumulative amount of permeated nitroglycerin: 101 μg/cm^2
[5]; Without polymer membrane (skin only), 8 hr
  Cumulative amount of permeated nitroglycerin: 154 μg/cm^2
[5]; Without polymer membrane (skin only), 10 hr
  Cumulative amount of permeated nitroglycerin: 218 μg/cm^2
